Reference: patent publication US9873693B2 (Sunesis Pharmaceuticals, Inc., priority 2006, dated 2018)

Each compound was assayed on phospho-akt (Thr308) (assay: phospho-akt (Thr308) MSD ELISA in PC-3 cells). Conditions: Homo sapiens, PC-3, 2 h, PC-3 cells, 2 hours, no serum; read-out: Inhibition of P308 Akt in cells using MSD EC50.
Type: cell-based
Method: PC-3 cells were harvested by trypsin and counted. Cells were plated in coated 96-well flat bottom plates (plate 15,000 cells/well in 100 ul growth media (10% FBS, 1× pen-strep) an place in an incubator overnight.
Subject inhibitors were stocked at 50 mM, then diluted to 30 mM (4.8 μl cpd plus […] DMSO) in 100% DMSO. Three-fold dilutions were performed from 30 mM stock. (4 μl into 8 ul 100% DMSO). Aliquots of 1.0 μl of inhibitor solution were transferred into SF Medium (using deep well block).
Control wells were prepared as follows. For DMSO high controls, 1.0 μl of 100% DMSO was added into 1.0 ml SF.
MSD plates were blocked for 1 hour by adding 150 μl of Blocking Solution (3% BSA) to each well. The MSD plates were washed 4× with TBST, and 50 μl lysates were transferred to MSD plate and place on plate shaker shake at 4 degrees O/N, light shaking (speed 3.5). The plate was washed 4× with TBST.
25 μl of Ab detection solution was added to each well. The plate was sealed and incubated 1 hr RT, light shaking (speed 3.5). The plate was washed 4 times with TBST. 150 μl of Read Buffer was added (5 mls 4×MSD Read Buffer+15 mls water). Finally the plate was read immediately on the MSD plate reader.

Row | Structure (SMILES) | EC50
1 | Nc1ncnc2ccc(-c3cccc(CNC(=O)c4cccn(Cc5ccc(F)c(F)c5)c4=O)c3)cc12 [Cpd 64] | > 5 µM
2 | O=C(NCc1cc(OC2CCNCC2)cc(-c2c[nH]c3ncccc23)c1)c1cccn(Cc2ccc(F)c(F)c2)c1=O [Cpd 67] | < 1 µM
3 | Cn1nc(NC(=O)c2cccn(Cc3ccc(F)c(F)c3)c2=O)c2cc(-c3c[nH]c4ncccc34)ccc21 [Cpd 87] | < 1 µM
4 | O=C(NCc1cccc(-c2c[nH]c3ncccc23)c1)c1cccn(Cc2ccc(C(F)(F)F)cc2)c1=O [Cpd 145] | > 5 µM
5 | CC(c1ccc(C(F)(F)F)cc1)n1cccc(C(=O)NCc2noc(-c3c[nH]c4ncccc34)n2)c1=O (centres unmarked) [Cpd 140] | 1 to 5 µM
6 | O=C(O)c1cc(-c2c[nH]c3ncccc23)cc(CNC(=O)c2cccn(Cc3ccc(F)c(F)c3)c2=O)n1 [Cpd 172] | > 5 µM
7 | Nc1ncnc2ccc(-c3ccc(CNC(=O)c4cccn(Cc5ccc(F)c(F)c5)c4=O)s3)cc12 [Cpd 70] | < 1 µM
8 | CC(C)Oc1cc(CNC(=O)c2cccn(Cc3cc(F)c(F)c(F)c3)c2=O)cc(-c2c[nH]c3ncccc23)c1 [Cpd 65] | < 1 µM
9 | CC(C)(C)OC(=O)N1CCC(Oc2cc(CNC(=O)c3cccn(Cc4ccc(F)c(F)c4)c3=O)cc(-c3c[nH]c4ncccc34)c2)CC1 [Cpd 88] | > 5 µM
10 | O=C(NC/C=C/c1ccc2[nH]c(=O)[nH]c2c1)c1cccn(Cc2cc(F)c(F)c(F)c2)c1=O [Cpd 170] | 1 to 5 µM
11 | O=C(NCc1cc(OC2CCCC2)cc(-c2c[nH]c3ncccc23)c1)c1cccn(Cc2ccc(F)c(F)c2)c1=O [Cpd 85] | 1 to 5 µM
12 | O=C(NCc1cc(OC2CCCCC2)cc(-c2c[nH]c3ncccc23)c1)c1cccn(Cc2ccc(F)c(F)c2)c1=O [Cpd 84] | > 5 µM
13 | O=C(NCc1cccc(-c2c[nH]c3ncc(C(=O)N4CCOCC4)cc23)c1)c1cccn(Cc2ccc(F)c(F)c2)c1=O [Cpd 69] | < 1 µM
14 | O=C(N[C@@H](COc1ccc2[nH]c(=O)[nH]c2c1)c1ccccc1Cl)c1cccn(Cc2cc(F)c(F)c(F)c2)c1=O [Cpd 151] | < 1 µM
15 | NC(=O)COc1cc(CNC(=O)c2cccn(Cc3ccc(F)c(F)c3)c2=O)cc(-c2c[nH]c3ncccc23)c1 [Cpd 62] | < 1 µM
16 | O=C(NCc1ccc(O)c(-c2c[nH]c3ncccc23)c1)c1cccn(Cc2ccc(F)c(F)c2)c1=O [Cpd 82] | 1 to 5 µM
17 | O=C(NCCOc1ccc2[nH]c(=O)[nH]c2c1F)c1cccn(Cc2ccc(F)c(F)c2)c1=O [Cpd 169] | 1 to 5 µM
18 | CS(=O)(=O)N1CCC(Oc2cc(CNC(=O)c3cccn(Cc4ccc(F)c(F)c4)c3=O)cc(-c3c[nH]c4ncccc34)c2)CC1 [Cpd 94] | < 1 µM
19 | O=C(Nc1ccnc2ccc(-c3c[nH]c4ncccc34)cc12)c1cccn(Cc2ccc(F)c(F)c2)c1=O [Cpd 66] | < 1 µM
20 | CCn1nc(NC(=O)c2cccn(Cc3ccc(F)c(F)c3)c2=O)c2cc(-c3c[nH]c4ncccc34)ccc21 [Cpd 95] | 1 to 5 µM
21 | O=C(N[C@@H](COc1ccc2[nH]c(=O)[nH]c2c1)C1CC1)c1cccn(Cc2cc(F)c(F)c(F)c2)c1=O [Cpd 168] | 1 to 5 µM
22 | C=C[C@H](COc1ccc2[nH]c(=O)[nH]c2c1)NC(=O)c1cccn(Cc2cc(F)c(F)c(F)c2)c1=O [Cpd 159] | 1 to 5 µM
23 | O=C(NCc1cc(OCC(O)CO)cc(-c2c[nH]c3ncccc23)c1)c1cccn(Cc2ccc(F)c(F)c2)c1=O (centres unmarked) [Cpd 68] | 1 to 5 µM
24 | C[C@H](COc1ccc2[nH]c(=O)[nH]c2c1)NC(=O)c1cccn(Cc2cc(F)c(F)c(F)c2)c1=O [Cpd 173] | 1 to 5 µM
25 | O=C(NCc1cccc(-c2c[nH]c(C(=O)N3CCOCC3)c2)c1)c1cccn(Cc2ccc(F)c(F)c2)c1=O [Cpd 76] | 1 to 5 µM
26 | O=C(NCc1noc(-c2c[nH]c3ncccc23)n1)c1cccn(Cc2cc(F)c(F)c(F)c2)c1=O [Cpd 138] | 1 to 5 µM
27 | CN(C)C(=O)COc1cc(CNC(=O)c2cccn(Cc3ccc(F)c(F)c3)c2=O)cc(-c2c[nH]c3ncccc23)c1 [Cpd 63] | < 1 µM
28 | O=C(NCc1coc(-c2c[nH]c3ncccc23)n1)c1cccn(Cc2ccc(F)c(F)c2)c1=O [Cpd 131] | 1 to 5 µM
29 | O=C(NCc1ccc(OCCN2CCOCC2)c(-c2c[nH]c3ncccc23)c1)c1cccn(Cc2ccc(F)c(F)c2)c1=O | 1 to 5 µM
30 | O=C(NCc1cccc(-c2c[nH]c3nccc(F)c23)c1)c1cccn(Cc2ccc(F)c(F)c2)c1=O [Cpd 74] | 1 to 5 µM

Same assay, conditions: Homo sapiens, PC-3, 2 h, PC-3 cells, 2 hours, no serum; read-out: Reduction of Cellular Levels of Akt p308 By MSD ELISA (EC50 μM)

Row | Structure (SMILES) | EC50
31 | O=C(NCc1cccc(-c2c[nH]c3ncccc23)c1)c1cccn(Cc2ccc(C(F)(F)F)cc2)c1=O [Cpd 145] | 1 to 5 µM
32 | CC(c1ccc(C(F)(F)F)cc1)n1cccc(C(=O)NCc2noc(-c3c[nH]c4ncccc34)n2)c1=O (centres unmarked) [Cpd 140] | 1 to 5 µM
33 | O=C(NCc1cccc(-c2c[nH]c3ncc(-c4nnn[nH]4)cc23)c1)c1cccn(Cc2ccc(F)c(F)c2)c1=O [Cpd 43] | > 5 µM
34 | O=C(Nc1n[nH]c2ccc(-c3c[nH]c4ncccc34)cc12)c1cccn(Cc2ccc(F)c(F)c2)c1=O [Cpd 42] | 1 to 5 µM
35 | O=C(NCc1noc(-c2c[nH]c3ncccc23)n1)c1cccn(Cc2cc(F)c(F)c(F)c2)c1=O [Cpd 138] | 1 to 5 µM
36 | O=C(NCc1coc(-c2c[nH]c3ncccc23)n1)c1cccn(Cc2ccc(F)c(F)c2)c1=O [Cpd 131] | 1 to 5 µM

Same assay, conditions: Homo sapiens, PC-3, 2 h, read-out: Inhibition of P308 Akt in cells using MSD EC50

Row | Structure (SMILES) | EC50
37 | O=C(NC(COc1ccc2[nH]c(=O)[nH]c2c1)c1cccnc1)c1cccn(Cc2cc(F)c(F)c(F)c2)c1=O (centres unmarked) [Cpd 163] | 1 to 5 µM
38 | CN1CCC(Oc2cc(CNC(=O)c3cccn(Cc4ccc(F)c(F)c4)c3=O)cc(-c3c[nH]c4ncccc34)c2)CC1 [Cpd 86] | 1 to 5 µM

Same assay, conditions: Homo sapiens; PC-3 cells, at 1 μM; read-out: Percent Inhibition of phospho-Akt (308) By MSD ELISA

Row | Structure (SMILES) | inhibition at 1 µM
39 | O=C(NCc1noc(-c2c[nH]c3ncccc23)n1)c1cccn(Cc2ccc(F)c(F)c2)c1=O [Cpd 129] | < 25%

Same assay, conditions: Homo sapiens; PC-3 cells, at 10 μM; read-out: Percent Inhibition of phospho-Akt (308) By MSD ELISA

Row | Structure (SMILES) | inhibition at 10 µM
40 | O=C(NCc1noc(-c2c[nH]c3ncccc23)n1)c1cccn(Cc2ccc(F)c(F)c2)c1=O [Cpd 129] | < 25%

Each compound was assayed against phosphorylated PDK1 (Homo sapiens (Human), UniProt O15530) (assay: PDK1 kinase assay (coupled PDK1/AKT/FAM-crosstide, IMAP)). Conditions: 0.5 nM phosphorylated PDK1, 24 μM ATP; read-out: Inhibition of phospo-PDK1 in vitro IC50.
Type: biochemical

phosphorylated PDK1, sequence (O15530 51-360): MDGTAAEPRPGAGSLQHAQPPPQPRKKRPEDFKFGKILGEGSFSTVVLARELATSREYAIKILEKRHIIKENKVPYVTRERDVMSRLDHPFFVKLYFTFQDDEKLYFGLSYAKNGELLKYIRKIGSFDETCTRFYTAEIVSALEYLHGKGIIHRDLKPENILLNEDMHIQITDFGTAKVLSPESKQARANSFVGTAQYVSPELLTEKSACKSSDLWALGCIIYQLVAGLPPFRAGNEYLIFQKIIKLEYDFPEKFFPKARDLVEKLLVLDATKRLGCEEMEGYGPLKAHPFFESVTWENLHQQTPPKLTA

Row | Structure (SMILES) | IC50
41 | NS(=O)(=O)c1cccc(-c2cccc(CNC(=O)c3cccn(Cc4ccc(F)c(F)c4)c3=O)c2)c1 [Cpd 227] | > 10000 nM
42 | O=C(Nc1cccc(C(=O)c2c[nH]c3ccccc23)c1)c1cccn(Cc2ccc(F)c(F)c2)c1=O [Cpd 221] | > 10000 nM
43 | O=C(NCCCCc1c[nH]c2ncccc12)c1cccn(Cc2ccc(Cl)c(Cl)c2)c1=O [Cpd 269] | < 500 nM
44 | O=C(c1cccn(Cc2ccc(F)c(F)c2)c1=O)N1CCN(C(=O)c2c[nH]c3ncccc23)CC1 [Cpd 233] | > 10000 nM
45 | O=C(Nc1cccc(C(=O)c2c[nH]c3ncccc23)c1)c1cccn(Cc2ccc(F)c(F)c2)c1=O [Cpd 127] | < 500 nM
46 | O=C(O)COc1cc(CNC(=O)c2cccn(Cc3ccc(F)c(F)c3)c2=O)cc(-c2c[nH]c3ncccc23)c1 [Cpd 61] | < 500 nM
47 | O=C(N[C@@H](COc1cc2[nH]c(=O)[nH]c2cn1)c1ccccc1)c1cccn(Cc2cc(F)c(F)c(F)c2)c1=O [Cpd 176] | < 500 nM
48 | O=C(O)c1cnc2[nH]cc(-c3cccc(CNC(=O)c4cccn(-c5cccc(F)c5F)c4=O)c3)c2c1 [Cpd 238] | < 500 nM
49 | O=C(NCc1cccc(-c2c[nH]c3ncc(CO)cc23)c1)c1cccn(Cc2ccc(F)c(F)c2)c1=O [Cpd 8] | < 500 nM
50 | O=C(NCc1cc(-c2c[nH]c3ncccc23)ncn1)c1cccn(Cc2ccc(F)c(F)c2)c1=O [Cpd 149] | < 500 nM
51 | O=C(NCCCCc1c[nH]c2ncccc12)c1cc(Cl)cn(Cc2ccc(Cl)cc2)c1=O [Cpd 268] | < 500 nM
52 | CN1CCC(=C2C(=O)Nc3cc(/C=C/CNC(=O)c4cccn(Cc5cc(F)c(F)c(F)c5)c4=O)ccc32)CC1 [Cpd 211] | < 500 nM
53 | NS(=O)(=O)c1ccc(-c2cccc(CNC(=O)c3cccn(Cc4ccc(F)c(F)c4)c3=O)c2)cc1 [Cpd 228] | > 10000 nM
54 | O=C(NCC1CCC(c2c[nH]c3ncccc23)CC1)c1cccn(Cc2ccc(F)c(F)c2)c1=O (centres unmarked) [Cpd 223] | > 10000 nM
55 | O=C(N[C@@H](COc1ccc2[nH]c(=O)[nH]c2c1)C(=O)O)c1cccn(Cc2cc(F)c(F)c(F)c2)c1=O [Cpd 154] | < 500 nM
56 | COc1ccnc(NCCC#CCCNC(=O)c2cccn(Cc3cccc(Cl)c3)c2=O)n1 [Cpd 250] | 500 to 10000 nM
